Experimental data as given in ChEMBL document CHEMBL5150044, “Macrocyclization of Quinazoline-Based EGFR Inhibitors Leads to Exclusive Mutant Selectivity for EGFR L858R and Del19” (J Med Chem, 2022).

Legend:
[1] = biological target: BMP-2-inducible protein kinase (Homo sapiens) (UniProt Q9NSY1); test: Binding affinity to recombinant BMP2K (unknown origin) assessed as change in melting temperature 10 uM by differential scanning fluorimetry
[2] = biological target: T1, Cyclin-G-associated kinase (Homo sapiens) (UniProt O14976); test: Binding affinity to recombinant GAK (unknown origin) assessed as change in melting temperature 10 uM by differential scanning fluorimetry
T1 sequence (whole entry): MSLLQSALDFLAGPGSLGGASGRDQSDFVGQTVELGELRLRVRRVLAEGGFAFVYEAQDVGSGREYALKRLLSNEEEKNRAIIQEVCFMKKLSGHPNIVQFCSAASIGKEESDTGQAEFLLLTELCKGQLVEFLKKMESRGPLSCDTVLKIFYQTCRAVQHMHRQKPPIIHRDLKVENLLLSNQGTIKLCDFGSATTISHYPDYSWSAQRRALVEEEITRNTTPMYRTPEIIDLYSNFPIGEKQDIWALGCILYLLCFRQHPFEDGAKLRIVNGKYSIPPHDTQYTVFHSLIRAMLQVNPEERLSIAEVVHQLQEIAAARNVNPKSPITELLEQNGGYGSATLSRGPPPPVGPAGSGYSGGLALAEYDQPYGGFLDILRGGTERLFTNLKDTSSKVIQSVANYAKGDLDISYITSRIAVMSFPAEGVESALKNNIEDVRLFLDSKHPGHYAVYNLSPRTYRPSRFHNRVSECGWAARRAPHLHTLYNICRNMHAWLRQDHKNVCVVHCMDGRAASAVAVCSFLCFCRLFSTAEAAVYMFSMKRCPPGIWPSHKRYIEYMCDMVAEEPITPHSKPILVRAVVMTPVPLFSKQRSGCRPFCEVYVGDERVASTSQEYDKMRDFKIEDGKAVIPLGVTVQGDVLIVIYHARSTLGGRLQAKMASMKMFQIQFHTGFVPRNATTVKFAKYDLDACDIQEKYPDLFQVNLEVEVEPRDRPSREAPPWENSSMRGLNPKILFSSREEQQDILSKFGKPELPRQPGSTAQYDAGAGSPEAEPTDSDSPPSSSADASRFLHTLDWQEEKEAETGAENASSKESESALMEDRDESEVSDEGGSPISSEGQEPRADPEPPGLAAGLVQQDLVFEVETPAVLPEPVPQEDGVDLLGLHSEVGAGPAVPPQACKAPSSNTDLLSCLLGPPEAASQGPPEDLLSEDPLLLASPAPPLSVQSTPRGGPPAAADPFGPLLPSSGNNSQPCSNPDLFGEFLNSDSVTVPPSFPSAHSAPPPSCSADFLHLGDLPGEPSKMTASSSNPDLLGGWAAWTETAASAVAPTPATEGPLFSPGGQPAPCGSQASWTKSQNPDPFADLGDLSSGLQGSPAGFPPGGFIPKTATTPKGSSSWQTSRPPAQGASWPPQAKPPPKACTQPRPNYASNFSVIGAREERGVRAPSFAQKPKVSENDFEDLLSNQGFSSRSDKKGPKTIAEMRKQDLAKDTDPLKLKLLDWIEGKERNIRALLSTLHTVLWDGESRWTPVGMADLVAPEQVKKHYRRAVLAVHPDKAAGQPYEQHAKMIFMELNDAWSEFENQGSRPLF

Sequence of BMP-2-inducible protein kinase (Homo sapiens) (Q9NSY1 whole entry, looked up): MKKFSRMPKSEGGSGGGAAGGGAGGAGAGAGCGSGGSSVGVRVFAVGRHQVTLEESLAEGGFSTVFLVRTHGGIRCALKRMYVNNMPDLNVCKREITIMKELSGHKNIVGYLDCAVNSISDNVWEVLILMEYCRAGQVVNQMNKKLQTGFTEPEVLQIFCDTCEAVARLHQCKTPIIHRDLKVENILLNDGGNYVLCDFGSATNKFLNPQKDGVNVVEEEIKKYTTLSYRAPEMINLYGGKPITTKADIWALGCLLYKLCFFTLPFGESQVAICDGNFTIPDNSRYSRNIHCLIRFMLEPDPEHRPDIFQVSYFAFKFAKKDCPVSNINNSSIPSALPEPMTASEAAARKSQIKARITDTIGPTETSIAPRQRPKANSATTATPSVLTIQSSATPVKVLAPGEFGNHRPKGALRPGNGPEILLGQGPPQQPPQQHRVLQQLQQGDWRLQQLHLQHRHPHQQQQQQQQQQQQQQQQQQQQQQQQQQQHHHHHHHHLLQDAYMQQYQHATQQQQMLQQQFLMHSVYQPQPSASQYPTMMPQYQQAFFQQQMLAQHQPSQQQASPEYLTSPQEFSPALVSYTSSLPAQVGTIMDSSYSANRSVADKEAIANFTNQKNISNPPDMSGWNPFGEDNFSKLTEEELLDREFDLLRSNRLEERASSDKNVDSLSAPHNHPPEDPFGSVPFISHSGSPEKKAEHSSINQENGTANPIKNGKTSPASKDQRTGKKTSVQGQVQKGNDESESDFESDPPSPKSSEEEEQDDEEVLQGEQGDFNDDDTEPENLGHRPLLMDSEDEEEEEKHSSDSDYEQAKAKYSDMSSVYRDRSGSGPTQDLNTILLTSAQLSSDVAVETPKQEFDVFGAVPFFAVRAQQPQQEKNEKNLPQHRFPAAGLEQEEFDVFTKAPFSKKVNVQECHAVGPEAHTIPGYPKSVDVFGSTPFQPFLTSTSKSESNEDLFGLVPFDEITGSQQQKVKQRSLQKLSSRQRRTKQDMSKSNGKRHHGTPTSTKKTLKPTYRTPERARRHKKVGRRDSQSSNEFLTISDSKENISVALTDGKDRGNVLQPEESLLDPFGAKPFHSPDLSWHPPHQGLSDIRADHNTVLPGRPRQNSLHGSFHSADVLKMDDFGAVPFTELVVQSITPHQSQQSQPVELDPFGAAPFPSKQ

ΔTm [1]: > 3 °C
ΔTm [2]: > 3 °C
Compound: COc1cc2ncnc(Nc3cc(Cl)c(F)cc3O)c2cc1O
